# Data published in PMC5325082 (Molecular Pharmacology, 2017).
# Experiments:
# [1] = biological target: rat α9α10 nAChR (wild type) (Rattus norvegicus, UniProt P43144+Q9JLB5); test: ACh-evoked currents, two-electrode voltage clamp in Xenopus laevis oocytes, wild-type receptor; type: cell-based; details: −70 mV
# Excerpt: (§1) cDNAs encoding Gallus gallus (chick) or Rattus norvegicus (rat) α9 and α10 nAChR subunits were subcloned into a modified pGEMHE vector for expression studies in Xenopus laevis oocytes. Capped cRNAs were in vitro transcribed from linearized plasmid DNA templates using RiboMAX Large Scale RNA Production System (Promega, Madison, WI). Mutant subunits were produced using Quick Change XL II kit (Stratagene, La Jolla, CA). Amino acid sequences of rat and chicken α9, α10, and Torpedo α1 subunits were aligned using ClustalW (EMBL-EBI, Wellcome Genome Campus, Hinxton, Cambridgeshire). Residues were numbered according to the corresponding Torpedo α1 subunit mature protein ([Karlin, 2002]).
# The maintenance of Xenopus laevis and the preparation and cRNA injection of stage V and VI oocytes have been described in detail elsewhere ([Verbitsky et al., 2000]). Typically, oocytes were injected with 50 nl of RNase-free water containing 0.01–1.0 ng of cRNA (at a 1:1 molar ratio when pairwise combined) and maintained in Barth’s solution at 18°C. […] Data were analyzed using Clampfit from the pClamp 6.1 software (Molecular Devices, Sunnyvale, CA). […]
# Concentration-response curves were normalized to the maximal agonist response in each oocyte. […] Data were analyzed using Clampfit from the pClamp 6.1 software.
# [2] = biological target: T1, α9χα10χW55T (UniProt P23979+P43144+Q9JLB5, L231I/L232I/W81T); test: [3H]-α-BTX radioligand binding, membranes of transfected tsA201 cells; design: species or system rat; details: ACh 1 mM alone vs standard mixture of nonradioactive ligands
# T1 construct: containing the extracellular N-terminal domain of the α9 or α10 subunit fused to the transmembrane and intracellular domain of the mouse 5-HT3A subunit; mouse 5-HT3A subunit transmembrane and intracellular domain (fusion partner); expressed in transfected cells; host or cells: tsA201 (derived from human embryonic kidney 293), transient transfection; membrane preparations
# T1 sequence (P23979 whole entry, looked up, stated change not applied, the tested form may be a part): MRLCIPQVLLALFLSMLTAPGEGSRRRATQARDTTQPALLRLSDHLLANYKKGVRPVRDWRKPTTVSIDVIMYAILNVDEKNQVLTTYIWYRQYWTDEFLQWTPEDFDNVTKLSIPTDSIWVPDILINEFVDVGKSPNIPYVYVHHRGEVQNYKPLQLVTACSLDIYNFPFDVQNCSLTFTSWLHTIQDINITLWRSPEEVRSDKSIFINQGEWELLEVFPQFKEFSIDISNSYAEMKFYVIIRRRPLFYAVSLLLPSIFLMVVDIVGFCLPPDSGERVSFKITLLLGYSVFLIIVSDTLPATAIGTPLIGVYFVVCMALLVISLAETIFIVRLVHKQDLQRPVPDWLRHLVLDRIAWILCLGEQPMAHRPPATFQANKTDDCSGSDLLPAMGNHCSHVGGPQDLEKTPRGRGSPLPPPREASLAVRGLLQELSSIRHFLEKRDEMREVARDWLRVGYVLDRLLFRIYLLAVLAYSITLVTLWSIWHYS
# T1 sequence (P43144 whole entry, looked up, stated change not applied, the tested form may be a part): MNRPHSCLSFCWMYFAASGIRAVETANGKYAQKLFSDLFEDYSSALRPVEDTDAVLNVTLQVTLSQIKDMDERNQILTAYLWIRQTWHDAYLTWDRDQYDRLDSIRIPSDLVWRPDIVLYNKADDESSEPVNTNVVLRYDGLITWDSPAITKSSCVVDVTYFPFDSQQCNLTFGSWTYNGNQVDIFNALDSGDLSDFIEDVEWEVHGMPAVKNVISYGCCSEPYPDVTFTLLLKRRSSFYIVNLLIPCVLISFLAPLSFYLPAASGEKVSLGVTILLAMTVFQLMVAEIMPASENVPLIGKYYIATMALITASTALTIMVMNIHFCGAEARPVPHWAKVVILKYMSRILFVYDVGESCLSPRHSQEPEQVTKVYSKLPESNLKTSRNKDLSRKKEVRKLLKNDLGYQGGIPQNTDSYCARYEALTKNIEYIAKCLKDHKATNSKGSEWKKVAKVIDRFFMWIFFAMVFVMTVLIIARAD
# T1 sequence (Q9JLB5 whole entry, looked up, stated change not applied, the tested form may be a part): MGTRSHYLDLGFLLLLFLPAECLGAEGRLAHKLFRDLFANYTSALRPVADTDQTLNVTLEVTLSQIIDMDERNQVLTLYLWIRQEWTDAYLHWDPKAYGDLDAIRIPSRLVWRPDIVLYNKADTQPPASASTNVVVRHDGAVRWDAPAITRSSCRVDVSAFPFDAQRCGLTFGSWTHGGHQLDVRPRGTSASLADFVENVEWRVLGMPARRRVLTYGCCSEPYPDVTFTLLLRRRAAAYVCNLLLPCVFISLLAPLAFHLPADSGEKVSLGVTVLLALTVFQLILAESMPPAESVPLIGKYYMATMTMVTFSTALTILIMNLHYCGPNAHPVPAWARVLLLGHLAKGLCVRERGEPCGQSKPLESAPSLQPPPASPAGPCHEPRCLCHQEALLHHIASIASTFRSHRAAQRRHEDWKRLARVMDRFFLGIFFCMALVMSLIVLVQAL
# Procedure: Chimeric subunit cDNAs containing the extracellular N-terminal domain of the α9 or α10 subunit fused to the transmembrane and intracellular domain of the mouse 5-HT3A subunit have been described previously ([Baker et al., 2004]). The mammalian cell line tsA201 (derived from the human embryonic kidney 293 cell line) was obtained from Dr. William Green (University of Chicago, Chicago). Cells were cultured in Dulbecco’s modified Eagle’s medium (Invitrogen, Paisley, United Kingdom) containing 2 mM L-GlutaMAX (Invitrogen) plus 10% heat-inactivated fetal calf serum (Sigma, Poole, United Kingdom) with penicillin (100 U/ml) and streptomycin (100 µg/ml) and were maintained in a humidified incubator containing 5% CO2 at 37°C. Cells were transiently transfected using Effectene transfection reagent (QIAGEN, Crawley, United Kingdom) according to the manufacturer’s instructions. In all cases, cells were transfected overnight and assayed for expression approximately 40–48 hours after transfection. To ensure that the levels of radioligand binding were not influenced by differences in the amount of subunit cDNA expressed, the amount of each subunit plasmid DNA and also the total amount of plasmid DNA were kept constant when subunits were expressed singly and in combination. This was achieved by the inclusion of empty plasmid expression vector when single subunits were transfected.
# Binding studies with [^3H]-α-bungarotoxin (α-BTX) in cell membrane preparations were performed essentially as described previously ([Lansdell and Millar, 2000]; [Harkness and Millar, 2002]). Membranes (typically, 10–100 µg of protein) were incubated with radioligand (final concentration 20 nM) for 150 minutes at 4°C in a total volume of 300 µl in the presence of protease inhibitors leupeptin (2 µg/ml) and pepstatin (1 µg/ml). Our standard protocol for determining nonspecific binding was the addition of 1 mM carbachol, 1 mM nicotine, and 10 µM methyllycaconitine to triplicate samples. […] In all cases the levels of specific binding were determined by subtracting the level of nonspecific binding from the total binding (both of which were determined in triplicate). The data were determined as means of three independent experiments, each performed in triplicate. Radioligand binding was assayed by filtration onto 0.5% polyethylenimine-presoaked Whatman GF/B filters (Sigma-Aldrich, Dorset, England) followed by rapid washing (typically, five washes, each of 4 ml) with ice-cold 10 mM phosphate buffer using a Brandel cell harvester, and radioactivity was determined by scintillation counting. […] Protein concentrations were determined using bovine serum albumin standards (Bio-Rad, Hercules, CA).
# [3] = biological target: rat α9CC/SSα10 receptor (Rattus norvegicus, UniProt P43144+Q9JLB5, C219S/C220S); test: ACh-evoked currents, two-electrode voltage clamp in Xenopus laevis oocytes; type: cell-based
# Sequence of rat α9CC/SSα10 receptor (P43144 26-479 C219S/C220S): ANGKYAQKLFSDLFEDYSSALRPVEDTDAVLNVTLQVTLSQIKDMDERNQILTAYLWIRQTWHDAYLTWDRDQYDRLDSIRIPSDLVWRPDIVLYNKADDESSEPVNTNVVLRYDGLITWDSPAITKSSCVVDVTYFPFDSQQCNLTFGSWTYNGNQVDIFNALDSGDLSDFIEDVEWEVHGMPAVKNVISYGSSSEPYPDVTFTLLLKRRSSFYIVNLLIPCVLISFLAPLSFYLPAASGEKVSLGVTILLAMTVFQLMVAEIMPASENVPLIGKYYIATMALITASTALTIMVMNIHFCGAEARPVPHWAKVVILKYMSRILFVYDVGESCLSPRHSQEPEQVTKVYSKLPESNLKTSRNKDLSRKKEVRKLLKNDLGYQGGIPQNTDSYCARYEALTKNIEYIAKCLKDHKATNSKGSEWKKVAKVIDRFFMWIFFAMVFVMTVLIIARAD
# Sequence of rat α9CC/SSα10 receptor (Q9JLB5 25-447, stated change not applied): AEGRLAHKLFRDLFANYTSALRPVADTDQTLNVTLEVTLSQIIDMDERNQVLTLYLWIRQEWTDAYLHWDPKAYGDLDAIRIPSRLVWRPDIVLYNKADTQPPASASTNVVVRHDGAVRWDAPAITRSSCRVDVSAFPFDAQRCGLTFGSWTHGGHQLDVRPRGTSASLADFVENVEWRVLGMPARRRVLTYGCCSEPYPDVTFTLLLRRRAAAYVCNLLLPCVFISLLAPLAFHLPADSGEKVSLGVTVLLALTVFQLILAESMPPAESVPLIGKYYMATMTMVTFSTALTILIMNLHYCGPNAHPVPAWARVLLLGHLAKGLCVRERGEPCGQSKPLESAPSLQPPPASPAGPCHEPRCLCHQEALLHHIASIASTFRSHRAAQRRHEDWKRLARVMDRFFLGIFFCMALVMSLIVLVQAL
# Excerpt: as §1
# (§2) The maintenance of Xenopus laevis and the preparation and cRNA injection of stage V and VI oocytes have been described in detail elsewhere ([Verbitsky et al., 2000]). Typically, oocytes were injected with 50 nl of RNase-free water containing 0.01–1.0 ng of cRNA (at a 1:1 molar ratio when pairwise combined) and maintained in Barth’s solution at 18°C. Electrophysiological recordings were performed 2–6 days after cRNA injection under two-electrode voltage clamp with an Oocyte Clamp OC-725B or C amplifier (Warner Instruments Corp., Hamden, CT). Recordings were filtered at a corner frequency of 10 Hz using a 900BT Tunable Active Filter (Frequency Devices Inc., Ottawa, IL). Data acquisition was performed using a Patch Panel PP-50 LAB/1 interface (Warner Instruments Corp.) at a rate of 10 points per second. Both voltage and current electrodes were filled with 3 M KCl and had resistances of ∼1 MΩ. Data were analyzed using Clampfit from the pClamp 6.1 software (Molecular Devices, Sunnyvale, CA). During electrophysiological recordings, oocytes were continuously superfused (∼15 ml/min) with normal frog saline composed of: 115 mM NaCl, 2.5 mM KCl, 1.8 mM CaCl2, and 10 mM HEPES buffer, pH 7.2. […] Unless otherwise indicated, the membrane potential was clamped to −70 mV. To minimize activation of the endogenous Ca^2+ sensitive chloride current ([Elgoyhen et al., 2001]), all experiments were performed in oocytes incubated with the Ca^2+ chelator 1,2-bis(2-aminophenoxy)ethane-N,N,N′,N′-tetraacetic acid (acetoxymethyl ester) (100 µM) for 3 hours before electrophysiological recordings.
# (§3) Concentration-response curves were normalized to the maximal agonist response in each oocyte. The mean and S.E.M. values of the responses are represented. Agonist concentration-response curves were iteratively fitted, using Prism 5 software (GraphPad Software Inc., La Jolla, CA), with the equation: I/Imax = A^nH/(A^nH + EC50^nH), where I is the peak inward current evoked by the agonist at concentration A; Imax is the current evoked by the concentration of the agonist eliciting a maximal response; EC50 is the concentration of the agonist inducing a half-maximal current response; and nH is the Hill coefficient. Data were analyzed using Clampfit from the pClamp 6.1 software.
# [4] = biological target: rat α9Y190Tα10 receptor (Rattus norvegicus, UniProt P43144+Q9JLB5, Y217T); test: as above; type: cell-based
# Sequence of rat α9Y190Tα10 receptor (P43144 26-479 Y217T): as the sequence (P43144 26-479 C219S/C220S) above, with Y192T, S194C, S195C counted along it
# Sequence of rat α9Y190Tα10 receptor (Q9JLB5 25-447): as the sequence (Q9JLB5 25-447, stated change not applied) above
# Excerpt: as §1, §2, §3
# [5] = biological target: rat α9CC/SSα10CC/SS receptor (Rattus norvegicus, UniProt P43144+Q9JLB5, C218S/C219S/C220S); test: as above; type: cell-based
# Sequence of rat α9CC/SSα10CC/SS receptor (P43144 26-479 C219S/C220S): as the sequence (P43144 26-479 C219S/C220S) above
# Sequence of rat α9CC/SSα10CC/SS receptor (Q9JLB5 25-447 C218S/C219S): as the sequence (Q9JLB5 25-447, stated change not applied) above, with C194S, C195S counted along it
# Excerpt: as §1, §2, §3
# [6] = biological target: rat α9α10Y190T receptor (Rattus norvegicus, UniProt P43144+Q9JLB5, Y216T); test: as above; type: cell-based
# Sequence of rat α9α10Y190T receptor (P43144 26-479): as the sequence (P43144 26-479 C219S/C220S) above, with S194C, S195C counted along it
# Sequence of rat α9α10Y190T receptor (Q9JLB5 25-447 Y216T): as the sequence (Q9JLB5 25-447, stated change not applied) above, with Y192T counted along it
# Excerpt: as §1, §2, §3
# [7] = biological target: rat α9W55Tα10 receptor (Rattus norvegicus, UniProt P43144+Q9JLB5, W82T); test: as above; type: cell-based
# Sequence of rat α9W55Tα10 receptor (P43144 26-479 W82T): as the sequence (P43144 26-479 C219S/C220S) above, with W57T, S194C, S195C counted along it
# Sequence of rat α9W55Tα10 receptor (Q9JLB5 25-447): as the sequence (Q9JLB5 25-447, stated change not applied) above
# Excerpt: as §1, §2, §3
# Sequence of rat α9α10 nAChR (wild type) (P43144 26-479): as the sequence (P43144 26-479 C219S/C220S) above, with S194C, S195C counted along it
# Sequence of rat α9α10 nAChR (wild type) (Q9JLB5 25-447): as the sequence (Q9JLB5 25-447, stated change not applied) above
structure (smiles),measurement,setting,value
"CC(=O)OCC[N+](C)(C)C [ACh, acetylcholine]",Imax (maximal evoked current),[1],298 ± 48 nA
same,Displacement of bound [3H]-α-BTX by ACh,[2],displaced as efficiently with ACh alone as with our standard mixture of nonradioactive competing ligands
same,Imax (maximal evoked current),[3],402 ± 103 nA
same,Imax (maximal evoked current),[4],112 ± 6 nA
same,Imax (maximal evoked current),[5],360 ± 119 nA
same,Imax (maximal evoked current),[6],336 ± 91 nA
same,Imax (maximal evoked current),[7],42 ± 4 nA
